How the values were obtained:
Assay in all cases: relative viability (nuclei count vs DMSO), 5 days (fraction); higher = more cells survive
Everolimus + Olaparib = compound: CO[C@H]1C[C@@H]2CC[C@@H](C)[C@@](O)(O2)C(=O)C(=O)N2CCCC[C@H]2C(=O)O[C@H]([C@H](C)C[C@@H]2CC[C@@H](OCCO)[C@H](OC)C2)CC(=O)[C@H](C)/C=C(\C)[C@@H](O)[C@@H](OC)C(=O)[C@H](C)C[C@H](C)/C=C/C=C/C=C/1C [Everolimus] + O=C(c1cc(Cc2n[nH]c(=O)c3ccccc23)ccc1F)N1CCN(C(=O)C2CC2)CC1 [Olaparib] (partner 8 µM)
How it was run: (§1)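 Dosing by pin tool came one day after lung cancer cell lines were seeded in 1536-well plates, using either one drug or a fixed anchor-drug dose plus five library-drug doses (not always all listed) in √10 steps. After 5 days, nuclei were counted on 4× images. Relative viability is treated-well nuclei count divided by vehicle-well nuclei count, and values are medians of duplicate plates.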

Everolimus + Palbociclib = compound: CO[C@H]1C[C@@H]2CC[C@@H](C)[C@@](O)(O2)C(=O)C(=O)N2CCCC[C@H]2C(=O)O[C@H]([C@H](C)C[C@@H]2CC[C@@H](OCCO)[C@H](OC)C2)CC(=O)[C@H](C)/C=C(\C)[C@@H](O)[C@@H](OC)C(=O)[C@H](C)C[C@H](C)/C=C/C=C/C=C/1C [Everolimus] + CC(=O)c1c(C)c2cnc(Nc3ccc(N4CCNCC4)cn3)nc2n(C2CCCC2)c1=O [Palbociclib] (partner 0.5 µM)
How it was run: as §1

Everolimus + Pemetrexed = compound: CO[C@H]1C[C@@H]2CC[C@@H](C)[C@@](O)(O2)C(=O)C(=O)N2CCCC[C@H]2C(=O)O[C@H]([C@H](C)C[C@@H]2CC[C@@H](OCCO)[C@H](OC)C2)CC(=O)[C@H](C)/C=C(\C)[C@@H](O)[C@@H](OC)C(=O)[C@H](C)C[C@H](C)/C=C/C=C/C=C/1C [Everolimus] + Nc1nc2[nH]cc(CCc3ccc(C(=O)N[C@@H](CCC(=O)O)C(=O)O)cc3)c2c(=O)[nH]1 [Pemetrexed] (partner 0.2 µM)
How it was run: as §1

Everolimus + Alpelisib = compound: CO[C@H]1C[C@@H]2CC[C@@H](C)[C@@](O)(O2)C(=O)C(=O)N2CCCC[C@H]2C(=O)O[C@H]([C@H](C)C[C@@H]2CC[C@@H](OCCO)[C@H](OC)C2)CC(=O)[C@H](C)/C=C(\C)[C@@H](O)[C@@H](OC)C(=O)[C@H](C)C[C@H](C)/C=C/C=C/C=C/1C [Everolimus] + Cc1nc(NC(=O)N2CCC[C@H]2C(N)=O)sc1-c1ccnc(C(C)(C)C(F)(F)F)c1 [Alpelisib] (partner 2 µM)
How it was run: as §1

Cell Line | relative viability (Everolimus + Olaparib; first compound 0.01 µM) | relative viability (Everolimus + Olaparib; first compound 0.03162 µM) | relative viability (Everolimus + Olaparib; first compound 0.1 µM) | relative viability (Everolimus + Olaparib; first compound 0.3162 µM) | relative viability (Everolimus + Olaparib; first compound 1 µM) | relative viability (Everolimus + Palbociclib; first compound 0.01 µM) | relative viability (Everolimus + Palbociclib; first compound 0.03162 µM) | relative viability (Everolimus + Palbociclib; first compound 0.1 µM) | relative viability (Everolimus + Palbociclib; first compound 0.3162 µM) | relative viability (Everolimus + Palbociclib; first compound 1 µM) | relative viability (Everolimus + Pemetrexed; first compound 0.01 µM) | relative viability (Everolimus + Pemetrexed; first compound 0.03162 µM) | relative viability (Everolimus + Pemetrexed; first compound 0.1 µM) | relative viability (Everolimus + Pemetrexed; first compound 0.3162 µM) | relative viability (Everolimus + Pemetrexed; first compound 1 µM) | relative viability (Everolimus + Alpelisib; first compound 0.01 µM) | relative viability (Everolimus + Alpelisib; first compound 0.03162 µM) | relative viability (Everolimus + Alpelisib; first compound 0.1 µM) | relative viability (Everolimus + Alpelisib; first compound 0.3162 µM) | relative viability (Everolimus + Alpelisib; first compound 1 µM)
HCC-44 | 1 | 1.17 | 1.07 | 1.06 | 1.03 | 1.01 | 1 | 0.997 | 1.07 | 1.1 | 0.769 | 0.802 | 0.675 | 0.705 | 0.727 | 0.616 | 0.597 | 0.44 | 0.511 | 0.44
HCC-78 | 0.827 | 0.43 | 0.657 | 0.717 | 0.678 | 0.477 | 0.489 | 0.513 | 0.485 | 0.379 | 0.902 | 0.929 | 0.873 | 0.914 | 0.93 | 0.244 | 0.244 | 0.213 | 0.234 | 0.228
HCC-366 | 0.337 | 0.271 | 0.302 | 0.27 | 0.284 | 0.337 | 0.156 | 0.216 | 0.207 | 0.106 | 0.339 | 0.307 | 0.284 | 0.216 | 0.173 | 0.334 | 0.231 | 0.251 | 0.25 | 0.267
HCC-827 | 0.73 | 0.672 | 0.681 | 0.501 | 0.645 | 0.459 | 0.409 | 0.331 | 0.479 | 0.277 | 0.22 | 0.251 | 0.194 | 0.275 | 0.243 | 0.925 | 0.736 | 0.656 | 0.682 | 0.637
HOP-62 | 0.354 | 0.434 | 0.5 | 0.505 | 0.339 | 0.418 | 0.304 | 0.268 | 0.294 | 0.268 | 0.326 | 0.401 | 0.337 | 0.375 | 0.338 | 0.683 | 0.551 | 0.517 | 0.518 | 0.429
IA-LM | 0.759 | 0.613 | 0.603 | 0.741 | 0.665 | – | – | – | – | – | – | – | – | – | – | 0.185 | 0.334 | 0.27 | 0.149 | 0.288
LC-2-ad | 0.861 | 0.972 | 0.817 | 0.84 | 0.864 | 0.543 | 0.572 | 0.564 | 0.561 | 0.475 | 0.275 | 0.301 | 0.286 | 0.291 | 0.253 | 0.752 | 0.885 | 0.754 | 0.737 | 0.818
LCLC-97TM1 | 0.356 | 0.317 | 0.291 | 0.269 | 0.434 | 0.225 | 0.217 | 0.159 | 0.164 | 0.173 | 0.165 | 0.195 | 0.196 | 0.18 | 0.211 | 0.204 | 0.178 | 0.164 | 0.167 | 0.139
NCI-H522 | 0.609 | 0.474 | 0.429 | 0.448 | 0.438 | 0.793 | 0.701 | 0.62 | 0.603 | 0.597 | 0.735 | 0.79 | 0.521 | 0.548 | 0.732 | – | – | – | – | –
NCI-H596 | 0.642 | 0.475 | 0.618 | 0.515 | 0.506 | – | – | – | – | – | 0.454 | 0.46 | 0.471 | 0.433 | 0.443 | 0.386 | 0.297 | 0.347 | 0.382 | 0.37
NCI-H727 | 0.719 | 0.673 | 0.569 | 0.524 | 0.755 | 0.642 | 0.529 | 0.725 | 0.613 | 0.643 | – | – | – | – | – | 0.399 | 0.328 | 0.266 | 0.308 | 0.364
NCI-H1299 | 0.953 | 0.987 | 0.994 | 1.04 | 0.841 | – | – | – | – | – | – | – | – | – | – | 1.04 | 1.09 | 1.01 | 1.06 | 1.06
NCI-H1563 | – | – | – | – | – | – | – | – | – | – | 0.715 | 0.572 | 0.618 | 0.576 | 0.546 | 0.715 | 0.717 | 0.662 | 0.641 | 0.685
NCI-H1648 | 0.577 | 0.473 | 0.613 | 0.597 | 0.482 | 0.257 | 0.21 | 0.259 | 0.22 | 0.222 | 0.544 | 0.538 | 0.659 | 0.629 | 0.742 | – | – | – | – | –
NCI-H1650 | 0.893 | 0.934 | 0.791 | 0.834 | 0.849 | 0.305 | 0.293 | 0.304 | 0.278 | 0.238 | 0.451 | 0.359 | 0.325 | 0.442 | 0.414 | – | – | – | – | –
NCI-H1703 | 0.36 | 0.218 | 0.333 | 0.233 | 0.337 | – | – | – | – | – | – | – | – | – | – | 0.213 | 0.22 | 0.29 | 0.239 | 0.338
NCI-H2342 | 0.385 | 0.363 | 0.304 | 0.333 | 0.36 | 0.48 | 0.407 | 0.493 | 0.44 | 0.463 | 0.559 | 0.478 | 0.446 | 0.584 | 0.477 | – | – | – | – | –
SW 900 | 0.801 | 0.744 | 0.814 | 0.656 | 0.649 | 0.445 | 0.331 | 0.406 | 0.383 | 0.318 | 0.391 | 0.432 | 0.482 | 0.431 | 0.421 | – | – | – | – | –
